Consider 87 molecules from PubChem BioAssay AID365 (MTDP, 2006).

pIC50: −log10 of the molar value. Activity calls are given as the source filed them. How the calls were made is not given here.

In this assay the target is Ribonuclease HI (Escherichia coli (strain K12)) (UniProt P0A7Y4). The assay is described as follows: E. coli RNase HI inhibitors, dose response, biochemical, FRET RNA/DNA duplex cleavage (AID 365). To be noted: E. coli RNase H, FRET RNA/DNA cleavage fluorescence.
Chain of Ribonuclease HI (Escherichia coli (strain K12)) (P0A7Y4 whole entry, looked up): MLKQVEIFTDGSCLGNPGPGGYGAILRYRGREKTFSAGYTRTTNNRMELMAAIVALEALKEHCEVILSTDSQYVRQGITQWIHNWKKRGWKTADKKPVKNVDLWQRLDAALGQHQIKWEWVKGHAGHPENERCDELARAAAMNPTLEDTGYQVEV

As a reminder, the pIC50 is the negative decadic logarithm of the IC50, by convention in mol/L. Turning to `CCOc1cccc(N2C(=O)/C(=C/c3cn(CC(=O)OC)c4ccccc34)C(=O)NC2=S)c1`, the negative logarithm of the IC50 (pIC50) is 5.21.

Usually IC50 stands for the concentration that inhibits the measured activity by half. Take `CC1Oc2cc3c(-c4c(O)cc(O)c5c(O)c6c(cc45)OC(C)C(C)C6=O)c(O)cc(O)c3c(O)c2C(=O)C1C` (configuration not stated): the IC50 result is “inactive”. On to `COc1cc([C@@H]2c3cc4c(cc3C[C@H]3COC(=O)[C@@H]32)OCO4)cc(OC)c1O`, for which the negative-log IC50 (pIC50) was 5.62.

Consider `COc1cccc2cc(C(N)=O)c(=O)oc12`, for which the IC50 is > 100 µM (inactive). Consider `c1ccc(C(c2cccc3c2ccc2ccccc23)C(c2ccccc2)c2cccc3c2ccc2ccccc23)cc1` (configuration not stated), for which the pIC50 is 5.12. On the same count and under the same terms, the value for `O=C1NC(=S)N(c2ccc(Cl)cc2)C(=O)/C1=C/c1ccc(Br)o1` was 5.77. The same measure, in the same setting: the value for `Cc1cc(Br)ccc1N1C(=O)/C(=C/c2ccco2)C(=O)NC1=S` was 6.70; that for `O=C1NC(=S)N(c2ccccc2F)C(=O)C1=Cc1ccco1` was 5.96.

Turning to `O=c1c(O)c(-c2ccc(O)c(O)c2)oc2cc(O)cc(O)c12`, the IC50 result was “inactive”. Still for that read-out and setting: for `COc1ccc(-c2nc3sc(-c4ccc(OC)cc4)nc3s2)cc1` the value was > 100 µM (inactive).

Take `O=C1NN(c2ccc(I)cc2)C(=O)/C1=C\c1ccc(O)c(O)c1`: the pIC50 was 5.46. The same measure, in the same setting: for `NC(=O)c1c(NC(=O)COc2ccccc2)sc2c1CCCCC2` the value was 5.70. For `Nc1ccc(S(=O)(=O)O)c2cccc(O)c12`, the IC50 entry was “inactive”. `O=c1c(O)cccc2cc(O)c(O)c(O)c12`: the IC50 entry is “inactive”.

For `COc1cc(C=O)ccc1OCCCOc1cccc(Oc2ccccc2)c1`, the pIC50 is 5.39.

Consider `O=C1c2ccccc2C(=O)c2c(O)c(O)cc(O)c21`, for which the IC50 entry is “inactive”. On the same count and under the same terms, the value for `Nc1nc(Sc2ccc([N+](=O)[O-])c3nonc23)c2[nH]cnc2n1` was > 100 µM (inactive); that for `O=C(N/N=C/c1ccccc1Cl)c1cc(O)c(O)c(O)c1` was “inactive”; that for `Cc1c(O)c(Br)c(C)c(O)c1Br` (tested in a mixture with another compound) was > 100 µM (inactive).

For `Oc1ccc(/C=N/Nc2nncc(-c3ccccc3)n2)c(O)c1O`, the pIC50 is 5.15. In the case of `C[C@H]1[C@H](O)c2c(c3c(c4c(-c5ccccc5)cc(=O)oc24)OC(C)(C)C=C3)O[C@@H]1C`, the IC50 was > 100 µM (inactive). `O=C1c2ccccc2C(=O)c2c(NC3CCCCC3)ccc(Nc3ccc(S(=O)(=O)O)cc3)c21`: the IC50 entry was “inactive”. Still for that read-out and setting: for `O=C1NC(=S)N(c2ccc(Cl)cc2)C(=O)/C1=C/c1ccco1` the value was “inactive”. Consider `Cc1ccc(S(=O)(=O)N=C2C=CC(=O)C=C2)c(C)c1`, for which the pIC50 is 5.11. Turning to `CN(C)CN1CSC(=S)N(CN(C)C)C1`, the IC50 result is “inactive”.

As to `Nc1c(S(=O)(=O)O)cc(Nc2cccc(S(N)(=O)=O)c2)c2c1C(=O)c1ccccc1C2=O`, the IC50 entry was “inactive”.

As to `Cc1sc(NC(=O)c2cccc([N+](=O)[O-])c2)c(C(N)=O)c1C`, the negative-log IC50 (pIC50) is 6.15.

On to `O=C(O)C1Nc2c(Cl)cc(Cl)cc2C2C=CCC12` (configuration not stated), for which the IC50 entry is “inactive”. Regarding `O=C1/C(=C\c2ccc(O)c(O)c2)SC(=S)N1c1cccc(Cl)c1`, the pIC50 is 5.54. For `O=C1C(Cl)=C/C(=N\S(=O)(=O)c2ccccc2)C(Cl)=C1Cl`, the IC50 entry is “inactive”. Regarding `Cc1ccc(-c2c(C#N)c(SCC(=O)c3ccc(O)c(O)c3)nc3c2CCCC3)o1`, the pIC50 was 6.70.

In the case of `CC(C)=CCC(O)C1=CC(=O)c2c(O)ccc(O)c2C1=O` (configuration not stated), the IC50 entry is “inactive”.

For `COC(=O)c1cc2cc3cc4cc(CC(=O)O)c(C(=O)/C=C(\O)c5ccccc5O)c(OC)c4c(OC)c3c(O)c2c(=O)o1`, the IC50 result is “inactive”.

As to `Cc1ccc(C)n1-c1ccc(SCC(=O)O)cc1`, the IC50 is > 100 µM (inactive). Consider `O=C(Nc1sc2c(c1C(=O)Nc1cccc3ccccc13)CCCCC2)c1ccccc1F`, for which the pIC50 is 5.30. In the case of `COc1ccc(C(=O)NC(=S)Nc2ccc3nn(-c4ccc(C)c(Cl)c4)nc3c2)cc1[N+](=O)[O-]`, the IC50 result was “inactive”. For the molecule `CN(C)S(=O)(=O)c1ccc(Nc2ccc(O)c3c2C(=O)c2c([N+](=O)[O-])ccc(O)c2C3=O)cc1`, the negative-log IC50 (pIC50) is 5.10. In the case of `Cc1cc(I)c2c(c1)C1C=CCC1C(C(=O)O)N2` (configuration not stated), the IC50 result is “inactive”.

As for `O=C1NC(=S)N(c2cccc(Cl)c2)C(=O)/C1=C\C=C\c1ccco1`, the IC50 entry was “inactive”. Consider `CCCc1cc(=O)oc2c3c(c4c(c12)OC(C)(C)C=C4)O[C@@H](C)[C@H](C)[C@@H]3F`, for which the pIC50 is 5.15. On the same count and under the same terms, the value for `C=C(CCC(C(=O)O)C1CCC2(C)C3=C(CCC12C)C1(C)CCC(O)C(C)(C)C1CC3)C(C)C` (configuration not stated) was 5.05; that for `Cc1ccc(-c2cc(C(=O)Nc3sc(C(=O)OC(C)C)c(C)c3C(N)=O)c3ccccc3n2)s1` was 5.74. As to `O=C1/C(=C/c2ccco2)C(=O)N(c2ccc(Br)cc2)C(=S)N1c1ccccc1`, the IC50 entry was “inactive”. Take `Cc1c(Cl)ccc2c1NC(C(=O)O)C1CC=CC21` (configuration not stated): the pIC50 is 5.17.

In the case of `CC(C)=CCC[C@]1(C)[C@@H](CC=C(C)C)C[C@@]2(CC=C(C)C)C(=O)/C(=C(\O)c3ccc(O)c(O)c3)C(=O)[C@]1(CC=C(C)C)C2=O`, the negative logarithm of the IC50 (pIC50) was 5.68. As for `CC1=C(CCC(=O)O)c2cc3nc(cc4[nH]c(cc5[nH]c(cc1n2)c(C)c5C(C)O)c(C)c4C(C)O)C(C)=C3CCC(=O)O` (configuration not stated), the IC50 is > 100 µM (inactive).

Take `CCOc1ccc(NC(=O)c2c(NC(=O)c3ccccc3)sc3c2CCCCC3)cc1`: the pIC50 is 6.48. Same read-out and setting: for `O=C1C=CC(=NS(=O)(=O)c2ccc(Cl)c([N+](=O)[O-])c2)C=C1` the value was 5.15. In the case of `CC(C)=Cc1cc(CCC/C(C)=C/Cc2c(O)cc(C)c(C(=O)O)c2O)co1`, the IC50 entry was “inactive”. Same read-out and setting: for `Oc1cc(O)c2c(c1)OC(c1ccc(O)c(O)c1)C(OC1(c3cc(O)c(O)c(O)c3)Oc3cc(O)cc(O)c3C(O)C1O)C2` (configuration not stated) the value was > 100 µM (inactive); for `Oc1ccc2ccccc2c1C=NCc1c(O)ccc2ccccc12`, “inactive”. On the same count and under the same terms, the value for `COc1cc(-c2[o+]c3cc(O)cc(O)c3cc2O)cc(O)c1O` was “inactive”; that for `Cc1ccc(C)n1-c1ccc(Br)cc1C(=O)O` was “inactive”; that for `Cc1ccc(S(=O)(=O)/N=C2\C=C(Sc3ncn[nH]3)C(=O)c3ccccc32)cc1` was “inactive”. Same read-out and setting: the value for `CCc1c(O)c2c(c(O)c1C(C)=O)C(=O)c1c(cc(O)c(C(=O)O)c1C(=O)O)C2=O` was > 100 µM (inactive); that for `Cc1sc(NC(=O)C2CC3CCC2C3)c(C(N)=O)c1C` (configuration not stated) was “inactive”. Take `O=C1C=CC(=O)c2c(O)cccc21`: the negative logarithm of the IC50 (pIC50) is 5.31.

`Cc1cccc(NC(=O)c2c(NC(=O)c3ccc([N+](=O)[O-])cc3)sc3c2CCCC3)c1`: the pIC50 was 6.55. Regarding `O=[N+]([O-])c1cc(Cc2cc([N+](=O)[O-])c3cccnc3c2O)c(O)c2ncccc12`, the IC50 result was “inactive”. Take `NC(=O)c1c(NC(=O)CCc2ccccc2)sc2c1CCCCCC2`: the pIC50 is 5.70. Consider `COC(=O)c1cc2c3c(ccc2[nH]1)N(C(=O)c1cc2c4c(ccc2[nH]1)N(C(=O)c1cc2c5c(ccc2[nH]1)N(C(N)=O)CC5)CC4)CC3`, for which the IC50 entry is “inactive”. In the case of `CC(C)c1ccc(O)c(O)c(=O)c1`, the IC50 result was “inactive”.

As for `O=C1O/C(=C(/C(=O)O)c2ccc(O)cc2)C(O)=C1c1cc2c3c(c(O)cc(C4=C(O)/C(=C(\C(=O)O)c5ccc(O)cc5)OC4=O)c3c1)OC2=O`, the IC50 entry is “inactive”.

On to `Cc1ccc(S(=O)(=O)N=C2C=C(Cl)C(=O)C(Br)=C2)cc1`, for which the IC50 entry was “inactive”. For the molecule `O=C(CSc1nc2ccccc2s1)c1sc2sc3ccccc3[n+]2c1[O-]`, the pIC50 is 6.22. Still for that read-out and setting: for `O=C1NC(=O)/C(=C/c2ccc(-c3ccc(O)c(C(=O)O)c3)o2)S1` the value was 5.89; for `O=c1[nH]c(=S)n(-c2ccccc2F)c(O)c1C=C1C=CC=N1`, 6.10. The same measure, in the same setting: for `Cc1ccc(NC(=O)c2c(NC(=O)c3ccccc3F)sc3c2CCCCC3)cc1` the value was 6.22; for `C[N+](C)=c1ccc2nc3c(cc(Nc4ccccc4)c4ccccc43)oc-2c1`, 5.55. `O=C1C(Cl)=C(Nc2ccc(S(=O)(=O)Nc3ccccn3)cc2)C(=O)c2ccccc21`: the pIC50 was 4.10. On the same count and under the same terms, the value for `CCOc1ccc(N2C(=O)/C(=C/c3ccc(I)o3)C(=O)NC2=S)cc1` was 5.62. `CC(C)OC(=O)c1cc(O)c(O)c(O)c1`: the IC50 is > 100 µM (inactive).

`O=C1C=CC2=C3c4cc(O)c(O)cc4CC3(O)COC2=C1O` (configuration not stated): the IC50 entry is “inactive”. Turning to `COc1ccc2oc(=O)c(-c3csc(Nc4ccc(Br)cc4)n3)cc2c1`, the negative-log IC50 (pIC50) is 5.55. Same read-out and setting: for `COc1ccccc1NC(=O)c1c(NC(=O)Cc2ccccc2)sc2c1CCCCC2` the value was 6.59. With `Cc1cccc(NCC(=O)N/N=C\c2c(Br)cc(Br)c(O)c2Br)c1`, the IC50 result was “inactive”. In the case of `Cc1cc(Cl)ccc1OCC(=O)Nc1sc(C)c(C)c1C(N)=O`, the pIC50 is 5.92.

Consider `O=c1oc2ccccc2c(O)c1/C=C1\C=Nc2ccccc21`, for which the IC50 entry was “inactive”. On the same count and under the same terms, for `NCC[Se][Se]CCN` the value was > 100 µM (inactive). On to `O=C1C=C/C(=N\S(=O)(=O)c2cc(Cl)ccc2Cl)C=C1Cl`, for which the negative-log IC50 (pIC50) is 5.15. As for `CCOC(=O)Oc1c(OC)cc(C(=O)O[C@@H]2C[C@@H]3CN4CCc5c([nH]c6cc(OC)ccc56)[C@H]4C[C@@H]3[C@H](C(=O)OC)[C@H]2OC)cc1OC`, the IC50 was > 100 µM (inactive). On the same count and under the same terms, for `COC(=O)c1c(N)sc(C(=O)Nc2ccc(OC)cc2)c1C` the value was “inactive”; for `C=Cc1c(C)c2cc3[nH]c(cc4nc(cc5nc(cc1[nH]2)C(C)=C5CCC(=O)O)C(CCC(=O)O)=C4C)c(C)c3C=C`, “inactive”. Turning to `FC(F)(F)c1nc2ccc(SSc3ccc4nc(C(F)(F)F)[nH]c4c3)cc2[nH]1`, the pIC50 is 5.10. Still for that read-out and setting: the value for `Cc1ccc(-n2c(/C=C/c3ccc(O)c(O)c3)nc3ccccc3c2=O)cc1` was 5.30.

With `CC1=NN(c2ccc(S(N)(=O)=O)cc2)C(=O)/C1=C/c1ccc(-c2ccc(Cl)cc2Cl)o1`, the pIC50 was 5.05. As for `O=C1c2ccc(O)cc2C(=O)c2c1ccc(O)c2O`, the IC50 result was “inactive”.
